The molecules below were run on cellobiose dehydrogenase. Settings: not given.
Assay type: biochemical, Coriolus hirsutus

Question: How did the Relative activity turn out when O=C(O)CN(CCN(CC(=O)O)CC(=O)O)CC(=O)O [EDTA] was run?
Answer: Its Relative activity is 45%.

Question: What about the “inhibition of the enzyme” value of the same molecule?
Answer: Its value is “weakly inhibited”.

Question: How did the Relative activity turn out when [N-]=[N+]=[N-].[Na+] [NaN3, sodium azide] was run?
Answer: The Relative activity was 46%.

Question: What about the “inhibition of the enzyme” value of the same molecule?
Answer: Its value is “weakly inhibited”.

Same assay, conditions: 1 mM

Question: [Cl-].[Cl-].[Co+2] [CoCl2] was tested. Which Relative activity did it give?
Answer: Its Relative activity is 53%.

Question: [Cl][Hg][Cl] [HgCl2] was tested. Which “inhibition of the enzyme” value did it give?
Answer: The value was “strongly inhibited”.

Question: With CCCCCCCCCCCCOS(=O)(=O)[O-].[Na+] [SDS] as the molecule, how does the “inhibition of the enzyme” value read?
Answer: The value was “strongly inhibited”.

Same assay, conditions: 1 mM; incubation at 4° C. overnight

Question: With [Cl][Al]([Cl])[Cl] [AlCl2] as the molecule, how does the Relative activity read?
Answer: The Relative activity was 23%.

Question: For [Ba+2].[Cl-].[Cl-] [BaCl2], which Relative activity is on record?
Answer: The Relative activity was 71%.

Question: Which Relative activity does the source give for [Ca+2].[Cl-].[Cl-] [CaCl2] here?
Answer: Its Relative activity is 65%.

Question: For [Cl][Cu][Cl] [CuCl2], which Relative activity is on record?
Answer: Its Relative activity is 53%.

Question: How did the Relative activity turn out when O=S(=O)([O-])[O-].[Cu+2] [CuSO4] was run?
Answer: The Relative activity was 82%.

Question: Which Relative activity does the source give for O=S(=O)([O-])[O-].[Fe+2] [FeSO4] here?
Answer: The Relative activity was 0%.

Question: With [Cl][Hg][Cl] [HgCl2] as the molecule, how does the Relative activity read?
Answer: The Relative activity was 0%.

Question: How did the Relative activity turn out when [Cl-].[Li+] [LiCl2] was run?
Answer: The Relative activity was 45%.

Question: [Cl-].[Cl-].[Mg+2] [MgCl2] was tested. Which Relative activity did it give?
Answer: The Relative activity was 64%.

Question: For [Cl][Mn][Cl] [MnCl2], which Relative activity is on record?
Answer: The Relative activity was 35%.

Question: Which Relative activity does the source give for [Cl][Ni][Cl] [NiCl2] here?
Answer: The Relative activity was 60%.

Question: CCCCCCCCCCCCOS(=O)(=O)[O-].[Na+] [SDS] was tested. Which Relative activity did it give?
Answer: Its Relative activity is 0%.

Question: For [Cl-].[Cl-].[Zn+2] [ZnCl2], which Relative activity is on record?
Answer: The Relative activity was 32%.

Question: How did the Relative activity turn out when O=S(=O)([O-])[O-].[Zn+2] [ZnSO4] was run?
Answer: Its Relative activity is 72%.

Reference: patent publication US20050181485A1, “Cellulose digesting enzyme gene and utilization of the gene” (priority 2002, published 2005)
